Measured values from patent US20240279221A1, “HETEROCYCLIC COMPOUNDS AND METHODS OF USE” (Schrödinger, Inc., priority 2021, published 2024).

What was measured:
[1] = target: SOS1:KRAS (G12C) interaction (Homo sapiens (Human), UniProt Q07889); assay: SOS1-KRas(G12C) FRET Assay; type: binding; conditions: 0.5 nM His10-SOS1 (res. 564-1049), 2.5 nM GST-KRAS (res. 1-169, G12C); read-out: SOS-KRas(G12C) FRET IC50
Summary of the method: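 TR-FRET measured binding of His10-SOS1 (res. 564-1049, 0.5 nM) to GST-KRAS G12C (res. 1-169, 2.5 nM), with anti-GST-Eu(K) and anti-6His-XL665 labels, in PBS with BSA, MgCl2, KF and DTT; 0.5% DMSO. Compound and SOS1 were pre-incubated 15 min at 25° C, KRAS was added, and the plate was read at 665/615 nm after 2 h at RT. IC50 and Hill slope came from non-linear regression.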

human SOS1 = human SOS1 (Homo sapiens (Human), UniProt Q07889); assay: Surface Plasmon Resonance (SPR) SOS1 Binding Assay; conditions: biotinylated SOS1 (res. 564-1049), 25° C., kinetic or steady state fit, read-out: KD for hSOS1
Chain of human SOS1 (Q07889 564-1049): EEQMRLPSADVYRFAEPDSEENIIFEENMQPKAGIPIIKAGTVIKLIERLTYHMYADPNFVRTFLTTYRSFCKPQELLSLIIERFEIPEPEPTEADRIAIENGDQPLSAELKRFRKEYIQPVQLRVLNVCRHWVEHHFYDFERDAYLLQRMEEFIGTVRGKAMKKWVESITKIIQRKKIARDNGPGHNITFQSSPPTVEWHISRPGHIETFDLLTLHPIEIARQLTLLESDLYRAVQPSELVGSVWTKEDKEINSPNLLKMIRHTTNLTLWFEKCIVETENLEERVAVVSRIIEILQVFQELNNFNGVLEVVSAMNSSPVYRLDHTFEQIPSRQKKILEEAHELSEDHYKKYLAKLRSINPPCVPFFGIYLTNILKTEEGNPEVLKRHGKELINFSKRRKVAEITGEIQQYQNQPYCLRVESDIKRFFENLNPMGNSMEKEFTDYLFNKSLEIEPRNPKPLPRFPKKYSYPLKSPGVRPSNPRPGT
Procedure: Binding to SOS1 was measured using a SPR assay with purified recombinant human SOS1 substrate (res. 564-1049 with N-terminal Avi tag; purified and biotinylated based on Hillig, et al., Proc Natl Acad Sci USA (2019); 116(7):2551-2560). SPR measurements were performed on a Biacore 8K SPR instrument (GE Healthcare, Sweden). Assays were performed at 25° C. using Series S SA sensor chips pre-coated with streptavidin (GE Healthcare, Cat. BR100531). Biotinylated SOS1 diluted in sample buffer (20 mM Tris HCl, 150 mM NaCl, 1 mM DTT, 0.05% TWEEN 20, 1 mM MgCl2, pH 8.0) was captured to one flow cell of the chip to about 3,000 resonance units (RU) using sample buffer supplemented with 5% DMSO as a running buffer. Serial dilutions of the assayed compounds in the running buffer at 100, 50 or 0.5 μM were injected for 60 s at a flow rate of 30 μL/min and association phases were recorded. Dissociation of the samples was monitored for 600 s. Data processing was performed using Biacore Insight Software (Biacore, GE Healthcare). Sensorgrams recorded on a SA flow cell without captured protein were subtracted from sensorgrams recorded on the SOS1 surface. Blank injections of running buffer were used for double referencing and solvent correction was applied to all sample sensorgrams to correct for buffer mismatches. KDs were estimated using a kinetic or steady state, where applicable, fitting model describing a reversible equilibrium with 1:1 binding between SOS1 and the compound.

Chain of SOS1:KRAS (G12C) interaction (Q07889 564-1049, stated change not applied): as the sequence (Q07889 564-1049) above

Row | Compound | IC50 [1] [nM] | Kd (human SOS1) [nM]
1 | Cc1c([C@@H](C)Nc2nn(C)c(=O)c3c(C)c(=O)n(C4CC4)cc23)cccc1C(F)(F)F [Example 7, (R)-6-cyclopropyl-2,8-dimethyl-4-((1-(2-methyl-3-(trifluoromethyl)phenyl)ethyl)amino)-2,6-dihydropyrido[3,4-d]pyridazine-1,7-dione] | 1050 | 259
2 | C[C@@H](Nc1nn(C)c(=O)c2c(Br)c(=O)n(C3(C(F)F)CC3)cc12)c1cccc(C(F)F)c1F [Example 72, (R)-8-bromo-4-((1-(3-(difluoromethyl)-2-fluorophenyl)ethyl)amino)-6-(1-(difluoromethyl)cyclopropyl)-2-methyl-2,6-dihydropyrido[3,4-d]pyridazine-1,7-dione] | 68.3 | 60
3 | C[C@@H](Nc1nn(C)c(=O)c2cc(=O)n(C3CC3)cc12)c1cccc(C(F)F)c1F [Example 17, (R)-6-cyclopropyl-4-((1-(3-(difluoromethyl)-2-fluorophenyl)ethyl)amino)-2-methyl-2,6-dihydropyrido[3,4-d]pyridazine-1,7-dione] | 248 | 31
4 | C[C@@H](Nc1nn(C)c(=O)c2cc(=O)n([C@@H]3CCOC[C@@H]3F)cc12)c1cccc(C(F)F)c1F (single isomer, unassigned) [Example 32] | 1050 | 229
5 | C[C@H](Nc1nn(C)c(=O)c2cc(=O)n(C3CCOCC3)cc12)c1cccc2c1CCC2(F)F [Example 68, (S)-4-((1-(1,1-difluoro-2,3-dihydro-1H-inden-4-yl)ethyl)amino)-2-methyl-6-(tetrahydro-2H-pyran-4-yl)pyrido[3,4-d]pyridazine-1,7(2H,6H)-dione] | 1710 | 1490
6 | COc1c(=O)n(C2CC2)cc2c(N[C@H](C)c3cccc(C(F)(F)F)c3C)nn(C)c(=O)c12 [Example 6, (R)-6-cyclopropyl-8-methoxy-2-methyl-4-((1-(2-methyl-3-(trifluoromethyl)phenyl)ethyl)amino)-2,6-dihydropyrido[3,4-d]pyridazine-1,7-dione] | 161 | 44
7 | COc1c(=O)n([C@@H]2CCOC[C@@H]2F)cc2c(N[C@H](C)c3cccc(C(F)F)c3F)nn(C)c(=O)c12 (single isomer, unassigned) [Example 58] | 32.7 | 15
8 | C[C@@H](Nc1nn(C)c(=O)c2cc(=O)n(C3CCOCC3)cc12)c1cccc2sccc12 [Example 62, (R)-4-((1-(benzo[b]thiophen-4-yl)ethyl)amino)-2-methyl-6-(tetrahydro-2H-pyran-4-yl)-2,6-dihydropyrido[3,4-d]pyridazine-1,7-dione] | 75.3 | 13
9 | C[C@@H](Nc1nn(C)c(=O)c2cc(=O)n([C@@H]3CCOC[C@H]3F)cc12)c1cccc(C(F)F)c1F (single isomer, unassigned) [Example 31] | 146 | 45
10 | C[C@@H](Nc1nn(C)c(=O)c2cc(=O)n([C@@]3(C)CCOC3)cc12)c1cccc(C(F)F)c1F (single isomer, unassigned) [Example 52] | 272 | 76
11 | Cc1c([C@@H](C)Nc2nn(C)c(=O)c3cc(=O)n([C@]4(C)CCOC4)cc23)cccc1C(F)(F)F (single isomer, unassigned) [Example 55] | 32.2 | 14
12 | C[C@H](Nc1nn(C)c(=O)c2cc(=O)n(C3CC3)cc12)c1cccc(C(F)(F)CO)c1F [Example 103, (S)-6-cyclopropyl-4-((1-(3-(1,1-difluoro-2-hydroxyethyl)-2-fluorophenyl)ethyl)amino)-2-methyl-2,6-dihydropyrido[3,4-d]pyridazine-1,7-dione] | 7800 | –
13 | Cn1nc(N[C@H](c2cccc(C(F)(F)F)c2)C(F)F)c2cn(C3CC3)c(=O)cc2c1=O [Example 112, (R)-6-cyclopropyl-4-((2,2-difluoro-1-(3-(trifluoromethyl)phenyl)ethyl)amino)-2-methylpyrido[3,4-d]pyridazine-1,7(2H,6H)-dione] | > 10000 | –
14 | COc1c(=O)n(C2CCOCC2)cc2c(N[C@H](C)c3cccc(C(C)(F)F)c3F)nn(C)c(=O)c12 [Example 37, (R)-4-((1-(3-(1,1-difluoroethyl)-2-fluorophenyl)ethyl)amino)-8-methoxy-2-methyl-6-(tetrahydro-2H-pyran-4-yl)-2,6-dihydropyrido[3,4-d]pyridazine-1,7-dione] | 30.4 | –
15 | C[C@H](Nc1nn(C)c(=O)c2cc(=O)n(C3CC3)cc12)c1ccc2c(c1)CCCC2 [Example 102, (S)-6-cyclopropyl-2-methyl-4-((1-(5,6,7,8-tetrahydronaphthalen-2-yl)ethyl)amino)-2,6-dihydropyrido[3,4-d]pyridazine-1,7-dione] | 3790 | –

Continued, values first:

Row | IC50 [1] [nM] | Kd (human SOS1) [nM] | Compound
16 | 90 | – | Cc1c([C@@H](C)Nc2nn(C)c(=O)c3cc(=O)n(C45COC(C)(C4)C5)cc23)cccc1C(F)(F)F [Example 127, (R)-2-methyl-4-((1-(2-methyl-3-(trifluoromethyl)phenyl)ethyl)amino)-6-(1-methyl-2-oxabicyclo[2.1.1]hexan-4-yl)-2,6-dihydropyrido[3,4-d]pyridazine-1,7-dione]
17 | > 10000 | – | Cc1cc([C@@H](C)Nc2nn(C)c(=O)c3cc(=O)n(C4CC4)cc23)cc(C(F)(F)F)c1 [Example 118, 6-cyclopropyl-2-methyl-4-[[(1R)-1-[3-methyl-5-(trifluoromethyl)phenyl]ethyl]amino]pyrido[3,4-d]pyridazine-1,7-dione]
18 | 179 | – | C[C@@H](Nc1nn(C)c(=O)c2cc(=O)n(C3(C(F)F)CC3)cc12)c1cccc2c1OCCC2(F)F [Example 180, (R)-4-((1-(4,4-difluorochroman-8-yl)ethyl)amino)-6-(1-(difluoromethyl)cyclopropyl)-2-methyl-2,6-dihydropyrido[3,4-d]pyridazine-1,7-dione]
19 | 13.8 | – | CC(=O)N1CC[C@@](n2cc3c(N[C@H](C)c4cccc5c(F)coc45)nn(C)c(=O)c3cc2=O)(C(F)(F)F)C1 (single isomer, unassigned) [Example 172]
20 | > 10000 | – | C[C@@H](Nc1nn(C)c(=O)c2cc(=O)n(C3(C(F)F)CC3)cc12)c1cccc2ccnn12 [Example 116, (R)-6-(1-(difluoromethyl)cyclopropyl)-2-methyl-4-((1-(pyrazolo[1,5-a]pyridin-7-yl)ethyl)amino)-2,6-dihydropyrido[3,4-d]pyridazine-1,7-dione]
21 | 382 | – | COc1c(=O)n([C@]2(C(F)(F)F)CCOC2)cc2c(N[C@H](C)c3cccc(C(F)F)c3F)nn(C)c(=O)c12 (single isomer, unassigned) [Example 158]
22 | > 10000 | – | Cc1cnc(C(F)(F)c2cccc([C@H](C)Nc3nn(C)c(=O)c4cc(=O)n(C5(C(F)F)CC5)cc34)c2F)cn1 [Example 177, (S)-4-((1-(3-(difluoro(5-methylpyrazin-2-yl)methyl)-2-fluorophenyl)ethyl)amino)-6-(1-(difluoromethyl)cyclopropyl)-2-methyl-2,6-dihydropyrido[3,4-d]pyridazine-1,7-dione]
23 | 54.3 | – | C[C@@H](Nc1nn(C)c(=O)c2cc(=O)n(C3(CF)CC3)cc12)c1cccc(C(F)F)c1F [Example 125, (R)-4-((1-(3-(difluoromethyl)-2-fluorophenyl)ethyl)amino)-6-(1-(fluoromethyl)cyclopropyl)-2-methylpyrido[3,4-d]pyridazine-1,7(2H,6H)-dione]
24 | 68.4 | – | C[C@@H](Nc1nn(C)c(=O)c2cc(=O)n(C34COC(C)(C3)C4)cc12)c1cccc(C(F)F)c1F [Example 179, (R)-4-((1-(3-(difluoromethyl)-2-fluorophenyl)ethyl)amino)-2-methyl-6-(1-methyl-2-oxabicyclo[2.1.1]hexan-4-yl)-2,6-dihydropyrido[3,4-d]pyridazine-1,7-dione]
25 | 34.3 | – | CC(=O)N1CC(C)(n2cc3c(N[C@H](C)c4cccc(C(F)F)c4F)nn(C)c(=O)c3cc2=O)C1 [Example 149, (R)-6-(1-acetyl-3-methylazetidin-3-yl)-4-((1-(3-(difluoromethyl)-2-fluorophenyl)ethyl)amino)-2-methylpyrido[3,4-d]pyridazine-1,7(2H,6H)-dione]
26 | 4490 | – | C[C@H](Nc1nn(C)c(=O)c2cc(=O)n(C3(C(F)F)CC3)cc12)c1cccc(C(F)(F)c2ccncc2)c1F [Example 175, (S)-4-((1-(3-(difluoro(pyridin-4-yl)methyl)-2-fluorophenyl)ethyl)amino)-6-(1-(difluoromethyl)cyclopropyl)-2-methyl-2,6-dihydropyrido[3,4-d]pyridazine-1,7-dione]
